Assay results as given in ChEMBL document CHEMBL6127124, “Structure-Activity Relationships and Discovery of (S)-5-(tert-Butyl)-11-(difluoromethoxy)-9-methoxy-2-oxo-1,2,5,6-tetrahydropyrido[2',1':2,3]imidazo[4,5-h]quinoline-3-carboxylic Acid (AB-161), a Novel Orally Available and Liver-Centric HBV RNA Destabilizer” (J Med Chem, 2024).
≈ marks a conversion by molar mass, not a printed value.

How the values were obtained:
[1] = Ratio of drug concentration in kidney to plasma of Beagle dog at 10 mg/kg, po measured for 12 hrs by LC-MS/MS analysis; type: ADME, organism-based, Canis lupus familiaris; conditions: kidney (relative to plasma)
[2] = Drug concentration in Beagle dog plasma at 10 mg/kg, po measured for 12 hrs by LC-MS/MS analysis; type: ADME, organism-based, Canis lupus familiaris; conditions: read-out: Ct
Cytochrome P450 2B6 = molecular target: T1, Cytochrome P450 2B6 (Homo sapiens, UniProt P20813); assay: Inhibition of CYP2B6 in human liver microsomes using bupropion as substrate preincubated for 30 min followed by NADPH addition measured after 12 mins by LC-MS/MS analysis; type: ADME, Microsome
T1 sequence (P20813 whole entry): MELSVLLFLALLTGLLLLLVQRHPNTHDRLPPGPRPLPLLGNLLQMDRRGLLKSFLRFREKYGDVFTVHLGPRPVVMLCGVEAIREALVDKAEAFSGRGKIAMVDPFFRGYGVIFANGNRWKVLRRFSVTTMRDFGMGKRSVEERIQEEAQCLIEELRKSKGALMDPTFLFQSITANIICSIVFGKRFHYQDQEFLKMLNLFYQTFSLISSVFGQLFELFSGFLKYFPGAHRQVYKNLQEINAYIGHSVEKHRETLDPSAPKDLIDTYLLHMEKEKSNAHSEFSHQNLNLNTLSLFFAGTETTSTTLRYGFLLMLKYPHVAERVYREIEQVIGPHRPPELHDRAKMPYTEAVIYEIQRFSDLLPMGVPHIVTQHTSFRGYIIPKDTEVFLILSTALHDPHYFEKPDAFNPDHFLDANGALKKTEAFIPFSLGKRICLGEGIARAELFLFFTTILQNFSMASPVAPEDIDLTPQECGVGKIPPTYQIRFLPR

[3] = Plasma protein binding in monkey assessed as unbound fraction at 2 uM incubated for 6 hrs by equilibrium dialysis; type: ADME, cell-free, Macaca mulatta; conditions: rhesus monkey
[4] = Metabolic stability in cynomolgous monkey liver microsomes assessed as clearance at 0.3 uM preincubated for 5 mins followed by NADPH addition measured upto 60 mins by LC-MS/MS analysis; type: ADME, Macaca fascicularis, Microsome; conditions: cynomolgus monkey, read-out: CLH
[5] = Drug concentration in Beagle dog kidney at 10 mg/kg, po measured for 12 hrs by LC-MS/MS analysis; type: ADME, organism-based, Canis lupus familiaris; conditions: read-out: Ct
[6] = Ratio of total drug concentration in liver to plasma in CD-1 mouse at 10 mg/kg, po measured for 24 hrs by LC-MS/MS analysis; type: ADME, organism-based; conditions: CD-1, mouse, liver and plasma
[7] = Permeability across basal to apical side in human Caco-2 cells at 5 uM incubated for 120 mins by LC-MS/MS analysis; type: ADME, cell-based; conditions: read-out: permeability
Hepatitis B virus [8] = assay: Antiviral activity against HBV infected in human HepG2.2.15 cells assessed as reduction in HBsAg level incubated for 6 days with media and compound replenishment on third day in presence of 40 percent mouse serum by CLIA; type: functional, organism-based; conditions: HepG2.2.15, 144 h
[9] = Plasma protein binding in rat assessed as unbound fraction at 2 uM incubated for 6 hrs by equilibrium dialysis; type: ADME, cell-free
Hepatitis B virus [10] = assay: Antiviral activity against HBV infected in human HepG2.2.15 cells assessed as reduction in HBsAg level incubated for 6 days with media and compound replenishment on third day by CLIA; type: functional, organism-based; conditions: HepG2.2.15, 144 h; for EC90: time 6 day
[11] = Selectivity ratio of drug concentration in liver in CD-1 mouse at 10 mg/kg, po measured for 12 hrs to EC90 for antiviral activity against HBV infected in human HepG2.2.15 cells assessed as reduction in HBsAg level; type: ADME, organism-based; conditions: in vivo
[12] = Cytotoxicity in human HepG2.2.15 cells by Cell Titer-Glo assay; type: toxicity, cell-based, HepG2 2.2.15
[13] = Permeability across apical to basal side in human Caco-2 cells at 5 uM incubated for 120 mins by LC-MS/MS analysis; type: ADME, cell-based; conditions: read-out: permeability
[14] = Metabolic stability in CD-1 mouse liver microsomes assessed as clearance at 0.3 uM preincubated for 5 mins followed by NADPH addition measured upto 60 mins by LC-MS/MS analysis; type: ADME, Microsome; conditions: time < 65 min, read-out: CLH
[15] = Metabolic stability in Sprague-Dawley rat liver microsomes assessed as clearance at 0.3 uM preincubated for 5 mins followed by NADPH addition measured upto 60 mins by LC-MS/MS analysis; type: ADME, Microsome; conditions: time < 65 min, read-out: CLH
[16] = Plasma protein binding in human assessed as unbound fraction at 2 uM incubated for 6 hrs by equilibrium dialysis; type: ADME, cell-free
[17] = Ratio of drug concentration in liver to plasma of CD-1 mouse at 10 mg/kg, po measured for 24 hrs by LC-MS/MS analysis; type: ADME, organism-based; conditions: liver and plasma
[18] = Ratio of drug concentration in lung to plasma of Beagle dog at 10 mg/kg, po measured for 12 hrs by LC-MS/MS analysis; type: ADME, organism-based, Canis lupus familiaris; conditions: lung (relative to plasma)
[19] = Plasma protein binding in mouse assessed as unbound fraction at 2 uM incubated for 6 hrs by equilibrium dialysis; type: ADME, cell-free
[20] = Drug concentration in CD-1 mouse liver at 10 mg/kg, po measured for 24 hrs by LC-MS/MS analysis; type: ADME, organism-based; conditions: read-out: Ct
Hepatitis B virus [21] = assay: Antiviral activity against HBV genotype D in immuno-competent C57BL/6 mouse model of chronic HBV assessed as log10 reduction in serum HBsAg production at 10 mg/kg, po qd for 14 days measured 24 hrs post-last dose by EIA relative to control; type: functional; conditions: time 15 day
[22] = Drug concentration in Beagle dog liver at 10 mg/kg, po measured for 12 hrs by LC-MS/MS analysis; type: ADME, organism-based, Canis lupus familiaris; conditions: read-out: Ct
[23] = Metabolic stability in human liver microsomes assessed as clearance at 0.3 uM preincubated for 5 mins followed by NADPH addition measured upto 60 mins by LC-MS/MS analysis; type: ADME, Microsome; conditions: time < 65 min, read-out: CLH
Hepatitis B virus [24] = assay: Antiviral activity against HBV genotype D in immuno-competent C57BL/6 mouse model of chronic HBV assessed as log10 reduction in serum HBsAg production at 1 mg/kg, po qd for 14 days measured 24 hrs post-last dose by EIA relative to control; type: functional; conditions: time 15 day
[25] = AUC (0 to 24 hrs) in CD-1 mouse at 10 mg/kg, po measured for 24 hrs by LC-MS/MS analysis; type: ADME, organism-based; conditions: in vivo
[26] = Selectivity ratio of drug concentration in liver in CD-1 mouse at 10 mg/kg, po measured for 24 hrs to EC90 for antiviral activity against HBV infected in human HepG2.2.15 cells assessed as reduction in HBsAg level; type: ADME, organism-based; conditions: in vivo
[27] = Ratio of drug concentration in liver to plasma of Beagle dog at 10 mg/kg, po measured for 12 hrs by LC-MS/MS analysis; type: ADME, organism-based, Canis lupus familiaris; conditions: liver (relative to plasma)
[28] = Ratio of total drug concentration in liver to plasma in CD-1 mouse at 10 mg/kg, po measured for 12 hrs by LC-MS/MS analysis; type: ADME, organism-based; conditions: liver and plasma
[29] = Drug concentration in CD-1 mouse plasma at 10 mg/kg, po measured for 24 hrs by LC-MS/MS analysis; type: ADME, organism-based; conditions: read-out: Ct
[30] = Kinetic solubility of compound in aqueous buffer at pH 4 at 200 uM incubated for 24 hrs by UPLC UV analysis; type: physicochemical; conditions: read-out: Kinetic_solubility
[31] = Kinetic solubility of compound in aqueous buffer at pH 7.4 at 200 uM incubated for 24 hrs by UPLC UV analysis; type: physicochemical; conditions: read-out: Kinetic_solubility

Kp at 12 h [1]	concentration at 12 h [2]	IC50 (Cytochrome P450 2B6)	fraction unbound at 6 h, 2 µM [3]	microsomal CLint at 0.3 µM [4]	concentration at 12 h [5]	Kp at 24 h [6]	Papp B→A at 2 h, 5 µM [7]	EC50 (Hepatitis B virus [8])	fraction unbound at 6 h, 2 µM [9]	EC50 (Hepatitis B virus [10])	EC90 (Hepatitis B virus [10])	Papp A→B at 2 h, 5 µM [13]	microsomal CLint at 0.3 µM [14]	microsomal CLint at 0.3 µM [15]	fraction unbound at 6 h, 2 µM [16]	Kp at 24 h [17]	Kp at 12 h [18]	Structure (SMILES)	Ratio [11]	CC50 [12]	further results
3.2	110 ng/g	> 25000 nM	0.02	4 µL/min/mg	347 ng/g	67	65.6 ×10⁻⁶ cm/s	6.8 nM	0.02	0.6 nM	6.1 nM	26.6 ×10⁻⁶ cm/s	1 µL/min/mg	5 µL/min/mg	0.05	67	0.7	CC(C)(C)[C@@H]1Cc2c(nc3c(C(F)(F)F)cc(C4CC4)cn23)-c2[nH]c(=O)c(C(=O)O)cc21	12480	48000 nM	fraction unbound at 6 h, 2 µM [19]: 0.01; concentration at 24 h [20]: 5740 ng/g; log(activity) (Hepatitis B virus [21]): 1.07; concentration at 12 h [22]: 275 ng/g; microsomal CLint at 0.3 µM [23]: 1 µL/min/mg; log(activity) (Hepatitis B virus [24]): 0.47; AUC(0-t) at 24 h [25]: 20500 ng·h/mL; Ratio [26]: 2089; Kp at 12 h [27]: 2.5; Kp at 12 h [28]: 56; concentration at 24 h [29]: 85.6 ng/g; solubility kinetic at 24 h, 200 µM [30]: 39 µM (≈ 17.4 µg/mL); solubility kinetic at 24 h, 200 µM [31]: 154 µM (≈ 68.6 µg/mL)
4.3	272 ng/g	> 25000 nM	0.02	2 µL/min/mg	1180 ng/g	184	54.5 ×10⁻⁶ cm/s	40 nM	0.06	2.2 nM	28 nM	4.4 ×10⁻⁶ cm/s	7 µL/min/mg	3 µL/min/mg	0.05	184	0.5	COc1cc(OC(F)F)c2nc3c(n2c1)C[C@@H](C(C)(C)C)c1cc(C(=O)O)c(=O)[nH]c1-3	1675	> 50000 nM	fraction unbound at 6 h, 2 µM [19]: 0.02; concentration at 24 h [20]: 10400 ng/g; log(activity) (Hepatitis B virus [21]): 0.71; concentration at 12 h [22]: 2910 ng/g; microsomal CLint at 0.3 µM [23]: 4 µL/min/mg; log(activity) (Hepatitis B virus [24]): 0.34; AUC(0-t) at 24 h [25]: 18900 ng·h/mL; Ratio [26]: 662; Kp at 12 h [27]: 11; Kp at 12 h [28]: 109; concentration at 24 h [29]: 56.8 ng/g; solubility kinetic at 24 h, 200 µM [30]: 43 µM (≈ 18.6 µg/mL); solubility kinetic at 24 h, 200 µM [31]: 183 µM (≈ 79.3 µg/mL)

Structure (SMILES)	Kp at 12 h [1]	concentration at 12 h [2]	IC50 (Cytochrome P450 2B6)	fraction unbound at 6 h, 2 µM [3]	microsomal CLint at 0.3 µM [4]	concentration at 12 h [5]	Kp at 24 h [6]	Papp B→A at 2 h, 5 µM [7]	EC50 (Hepatitis B virus [8])	fraction unbound at 6 h, 2 µM [9]	EC50 (Hepatitis B virus [10])	EC90 (Hepatitis B virus [10])	Papp A→B at 2 h, 5 µM [13]	microsomal CLint at 0.3 µM [14]	microsomal CLint at 0.3 µM [15]	fraction unbound at 6 h, 2 µM [16]	Kp at 24 h [17]	Kp at 12 h [18]	Ratio [11]	CC50 [12]	further results
COCCCOc1cc2c(nc1OC)-c1cc(=O)c(C(=O)O)cn1[C@H](C(C)C)C2	2.7	48.3 ng/g	21000 nM	0.58	5 µL/min/mg	129 ng/g	3	43.8 ×10⁻⁶ cm/s	7.8 nM	0.46	1.3 nM	13 nM	11.5 ×10⁻⁶ cm/s	3 µL/min/mg	3 µL/min/mg	0.55	3	1.3	191	> 50000 nM	fraction unbound at 6 h, 2 µM [19]: 0.66; concentration at 24 h [20]: 87 ng/g; log(activity) (Hepatitis B virus [21]): 1; concentration at 12 h [22]: 140 ng/g; microsomal CLint at 0.3 µM [23]: 2 µL/min/mg; log(activity) (Hepatitis B virus [24]): 0.81; AUC(0-t) at 24 h [25]: 4770 ng·h/mL; Ratio [26]: 4; Kp at 12 h [27]: 2.9; Kp at 12 h [28]: 6; concentration at 24 h [29]: 29 ng/g; solubility kinetic at 24 h, 200 µM [30]: 190 µM (≈ 76.5 µg/mL); solubility kinetic at 24 h, 200 µM [31]: 175 µM (≈ 70.4 µg/mL)
